Measurements taken from paper PMC10485906, “Development of a Dihydroquinoline–Pyrazoline GluN2C/2D-Selective Negative Allosteric Modulator of the N-Methyl-D-aspartate Receptor” (ACS Chemical Neuroscience, 2023).
Read-outs that look alike come from different tables or passages of the source.

Experiments:
[1] = target: T1, GluN1/GluN2B (Rattus norvegicus, UniProt P35439+Q00960); assay: Two-electrode voltage-clamp recordings, Xenopus laevis oocytes, GluN1/GluN2B; type: cell-based; conditions: 100 μM glutamate, 30 μM glycine; for remaining activity at 30 µM: 30 μM test compound, mean ± SEM, read-out: I 30 μM / I control GluN2B; for IC50: read-out: IC50 GluN2B [95% CI]
T1 construct: GluN2B (NM_012574.1), GluN2C (NM_012575.3), and GluN2D (NM_022797.2) were provided by; expressed in transfected cells; host or cells: Xenopus laevis oocytes (cRNA injection)
Experimental: (§1) All target compounds were evaluated for NMDAR antagonism using two-electrode voltage-clamp recordings from Xenopus laevis oocytes coexpressing recombinant GluN1 and GluN2A-D subunits (Table 1).[32],[42],[33] All analogues were assessed as either a racemic (2b, 2e–2r) or diastereomeric (2d) mixture to simplify purification and streamline in vitro analysis. […] Moreover, as illustrated by the significant loss of NMDAR activity observed with nitrile 2e, the DQP allosteric site necessitated an H-bond donor/acceptor relationship at the carboxylate position. […] The loss of NMDAR activity observed with the trifluoro analogue 2j (Table S1) reinforced the necessity for an H-bond donor/acceptor relationship to maintain allosteric binding and established that fluorine substitution alone is ineffective. […] A single methyl substitution of the amide in compound 2q improved selectivity against GluN2A and had similar potency as 2a, whereas dual methyl substitution reduced potency (2r). We expect that this is likely due to the ability of the […] of the amide to accept hydrogen bonds while the amide can readily donate a proton.
(§2) Unfertilized Xenopus laevis oocytes were obtained from Ecocyte (Austin, TX), or ovaries were purchased from Xenopus 1 (Dexter, MI) and oocytes prepared as previously described.[42],[47] Two-electrode voltage-clamp recordings were performed on oocytes expressing recombinant rat GluN1/GluN2A, GluN1/GluN2B, GluN1/GluN2C, or GluN1/GluN2D. cDNAs for rat GluN1-1a (referred to as GluN1; NCBI Reference Sequence NM_017010.2), GluN2A (NM_012573.4), GluN2B (NM_012574.1), GluN2C (NM_012575.3), and GluN2D (NM_022797.2) were provided by Dr. S. Heinemann from the Salk Institute, Dr. S. Nakanishi from Kyoto University, and Dr. P. Seeburg from the University of Heidelberg. Oocyte isolation, cRNA synthesis, and cRNA injections were performed as previously described.[32],[33],[47] Briefly, Xenopus laevis oocytes were injected with 5–10 ng of cRNA in RNase-free water with the GluN1:GluN2 ratio ranging from 1:1 to 1:5. Oocytes were incubated at 15–19 °C in Barth’s solution consisting of (in mM) 88 NaCl, 1 KCl, 2.4 NaHCO3, 10 HEPES, 0.82 MgSO4, 0.33 Ca(NO3)2, and 0.41 CaCl2 supplemented with 100 μg/mL gentamycin, 40 μg/mL streptomycin, and 50 μg/mL penicillin. Recordings were performed 2–4 days after injection with extracellular recording solution containing (in mM) 90 NaCl, 1 KCl, 10 HEPES, 0.5 BaCl2, and 0.01 EDTA at pH 7.4 adjusted with NaOH. To prevent a gradual increase in current response over the course of the experiment, some oocytes expressing GluN1/GluN2A were injected with 20–50 nL of 2–50 mM K-BAPTA. Concentration–response curves for test compounds were generated by applying a maximally effective concentration of glutamate (100 μM) and glycine (30 μM), followed by glutamate and glycine with variable concentrations of test compounds up to 30 μM. The test compounds were prepared as 20 mM stock solutions in DMSO and diluted to the final concentration in recording solution. The DMSO content was 0.05–0.5% (v/v). […] Methods for off-target analysis are given in the Supporting Information.
(§3) Confidence intervals were determined for the log(IC50). The time course of relaxation during inhibitor application or deactivation following rapid removal of NMDA or glutamate was fitted by the equation [drawing 5] 2

[2] = target: T2, GluN1/GluN2A (Rattus norvegicus, UniProt P35439+Q00959); assay: Two-electrode voltage-clamp recordings, Xenopus laevis oocytes, GluN1/GluN2A; type: cell-based; conditions: 100 μM glutamate, 30 μM glycine; for remaining activity at 30 µM: 30 μM test compound, mean ± SEM, read-out: I 30 μM / I control GluN2A; for IC50: read-out: IC50 GluN2A [95% CI]
T2 construct: expressed in transfected cells; host or cells: Xenopus laevis oocytes (cRNA injection)
Experimental: as §1, §2, §3

[3] = target: GluN1/GluN2C (Rattus norvegicus, UniProt P35439+Q00961); assay: Two-electrode voltage-clamp recordings, Xenopus laevis oocytes, GluN1/GluN2C; type: cell-based; design: GluN2B (NM_012574.1), GluN2C (NM_012575.3), and GluN2D (NM_022797.2) were provided by; expressed in transfected cells; host or cells: Xenopus laevis oocytes (cRNA injection); conditions: 100 μM glutamate, 30 μM glycine; for remaining activity at 30 µM: 30 μM test compound, mean ± SEM, read-out: I 30 μM / I control GluN2C; for IC50: read-out: IC50 GluN2C [95% CI]
Experimental: as §1, §2, §3

[4] = target: GluN1/GluN2D (Rattus norvegicus, UniProt P35439+Q62645); assay: Two-electrode voltage-clamp recordings, Xenopus laevis oocytes, GluN1/GluN2D; type: cell-based; design: GluN2B (NM_012574.1), GluN2C (NM_012575.3), and GluN2D (NM_022797.2) were provided by; expressed in transfected cells; host or cells: Xenopus laevis oocytes (cRNA injection); conditions: 100 μM glutamate, 30 μM glycine; for remaining activity at 30 µM: 30 μM test compound, mean ± SEM, read-out: I 30 μM / I control GluN2D; for IC50: read-out: IC50 GluN2D [95% CI]
Experimental: as §1, §2, §3

[5] = target: GluN1/GluN2C (Rattus norvegicus, UniProt Q00961); assay: Two-electrode voltage-clamp recordings, Xenopus laevis oocytes, GluN1/GluN2C; type: cell-based; design: GluN2B (NM_012574.1), GluN2C (NM_012575.3), and GluN2D (NM_022797.2) were provided by; expressed in transfected cells; host or cells: Xenopus laevis oocytes (cRNA injection); conditions: 100 μM glutamate, 30 μM glycine, mean ± SEM
Experimental: as §1, §2, §3

[6] = target: GluN1/GluN2D (Rattus norvegicus, UniProt Q62645); assay: Two-electrode voltage-clamp recordings, Xenopus laevis oocytes, GluN1/GluN2D; type: cell-based; design: GluN2B (NM_012574.1), GluN2C (NM_012575.3), and GluN2D (NM_022797.2) were provided by; expressed in transfected cells; host or cells: Xenopus laevis oocytes (cRNA injection); conditions: for Selectivity 2A IC50 / 2D IC50: GluN2D over GluN2A; for Selectivity 2B IC50 / 2D IC50: GluN2D over GluN2B
Experimental: as §1, §2, §3

[7] = Brain homogenate tissue binding and stability (RED device); type: in vitro ADME, mouse
Experimental: Carbamazepine (Apin Chemicals) served as a positive control for brain tissue binding. Test compounds and the positive control were initially dissolved in DMSO to make 1 mM stock solutions. […] A rapid equilibrium dialysis (RED) device (Thermo Scientific) containing a dialysis membrane with a molecular weight cutoff of 8000 Da was used to assess tissue binding and metabolic stability. […] The test compounds and positive control (200 μL of 5 μM solution) were added to the red chamber of the dialysis insert, while the white chamber was filled with dialysis buffer (350 μL). The RED device was then sealed with an adhesive film and incubated at 37 °C with shaking (300 rpm) for 4 h. For the initial time point (t = 0 min), 50 μL aliquots of test compounds and the positive control were added to 96-deep well plates (0.7 mL per well) and quenched with 400 μL of MeCN. Following dialysis, another 50 μL aliquot of the tested samples was removed from each well (brain homogenate and buffer) and diluted with an equal volume of the opposite matrix to nullify any matrix effects. […] The supernatant (100 μL) was subsequently transferred to 96-deep well plates for LC-MS/MS analysis. Prodrug metabolism and 2i concentrations were determined by fit-for-purpose LC-MS/MS methods on a nine-point calibration curve ranging from 0.12 to 7.5 μM.

[8] = target: T3, GluN1/GluN2B (Rattus norvegicus, UniProt Q00960); assay: Two-electrode voltage-clamp recordings, Xenopus laevis oocytes, GluN1/GluN2B; type: cell-based; conditions: tested at 3 μM; 100 μM glutamate, 30 μM glycine; mean ± SEM
T3 construct: GluN2B (NM_012574.1), GluN2C (NM_012575.3), and GluN2D (NM_022797.2) were provided by; expressed in transfected cells; host or cells: Xenopus laevis oocytes (cRNA injection)
Experimental: as §1, §2, §3

[9] = target: T4, GluN1/GluN2A (Rattus norvegicus, UniProt Q00959); assay: Two-electrode voltage-clamp recordings, Xenopus laevis oocytes, GluN1/GluN2A; type: cell-based; conditions: tested at 3 μM; 100 μM glutamate, 30 μM glycine; mean ± SEM
T4 construct: expressed in transfected cells; host or cells: Xenopus laevis oocytes (cRNA injection)
Experimental: as §1, §2, §3

T2 sequence (Q00959 23-1464, other chains not shown): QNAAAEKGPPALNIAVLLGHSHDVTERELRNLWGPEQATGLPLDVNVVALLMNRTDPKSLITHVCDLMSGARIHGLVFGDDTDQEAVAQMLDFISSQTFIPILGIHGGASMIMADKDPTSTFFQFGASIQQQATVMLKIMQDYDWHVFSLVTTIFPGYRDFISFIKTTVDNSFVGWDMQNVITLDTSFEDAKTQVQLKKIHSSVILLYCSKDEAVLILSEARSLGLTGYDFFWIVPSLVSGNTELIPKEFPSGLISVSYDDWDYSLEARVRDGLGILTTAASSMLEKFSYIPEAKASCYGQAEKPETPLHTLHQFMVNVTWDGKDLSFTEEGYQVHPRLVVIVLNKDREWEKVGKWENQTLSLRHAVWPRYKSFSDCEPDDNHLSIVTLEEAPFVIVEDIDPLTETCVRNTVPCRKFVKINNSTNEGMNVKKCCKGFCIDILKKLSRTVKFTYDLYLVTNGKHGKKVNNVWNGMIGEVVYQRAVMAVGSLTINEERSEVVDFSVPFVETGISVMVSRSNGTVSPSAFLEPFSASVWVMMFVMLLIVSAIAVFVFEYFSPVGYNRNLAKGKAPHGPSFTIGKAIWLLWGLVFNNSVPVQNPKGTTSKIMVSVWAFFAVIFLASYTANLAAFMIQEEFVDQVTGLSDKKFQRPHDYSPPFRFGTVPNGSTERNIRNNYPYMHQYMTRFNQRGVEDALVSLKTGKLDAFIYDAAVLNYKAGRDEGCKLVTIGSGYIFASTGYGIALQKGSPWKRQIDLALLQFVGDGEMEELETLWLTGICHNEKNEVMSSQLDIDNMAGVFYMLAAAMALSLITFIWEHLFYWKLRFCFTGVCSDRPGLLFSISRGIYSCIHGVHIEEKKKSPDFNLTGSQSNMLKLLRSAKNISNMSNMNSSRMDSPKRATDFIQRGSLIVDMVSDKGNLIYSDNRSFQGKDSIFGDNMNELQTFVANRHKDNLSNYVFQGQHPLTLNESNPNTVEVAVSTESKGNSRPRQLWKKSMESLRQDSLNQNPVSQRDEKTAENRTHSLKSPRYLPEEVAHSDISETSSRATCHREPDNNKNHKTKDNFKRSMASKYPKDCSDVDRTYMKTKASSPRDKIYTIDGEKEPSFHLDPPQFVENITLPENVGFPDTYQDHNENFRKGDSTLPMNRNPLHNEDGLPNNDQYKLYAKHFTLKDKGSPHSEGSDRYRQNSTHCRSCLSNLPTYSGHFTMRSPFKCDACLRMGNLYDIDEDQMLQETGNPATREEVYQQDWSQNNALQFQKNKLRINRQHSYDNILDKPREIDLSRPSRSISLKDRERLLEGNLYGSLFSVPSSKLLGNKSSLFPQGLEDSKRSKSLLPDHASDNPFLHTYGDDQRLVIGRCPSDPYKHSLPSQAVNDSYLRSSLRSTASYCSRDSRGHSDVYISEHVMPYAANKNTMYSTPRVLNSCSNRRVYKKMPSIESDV
T1 sequence (Q00960 27-1482, other chains not shown): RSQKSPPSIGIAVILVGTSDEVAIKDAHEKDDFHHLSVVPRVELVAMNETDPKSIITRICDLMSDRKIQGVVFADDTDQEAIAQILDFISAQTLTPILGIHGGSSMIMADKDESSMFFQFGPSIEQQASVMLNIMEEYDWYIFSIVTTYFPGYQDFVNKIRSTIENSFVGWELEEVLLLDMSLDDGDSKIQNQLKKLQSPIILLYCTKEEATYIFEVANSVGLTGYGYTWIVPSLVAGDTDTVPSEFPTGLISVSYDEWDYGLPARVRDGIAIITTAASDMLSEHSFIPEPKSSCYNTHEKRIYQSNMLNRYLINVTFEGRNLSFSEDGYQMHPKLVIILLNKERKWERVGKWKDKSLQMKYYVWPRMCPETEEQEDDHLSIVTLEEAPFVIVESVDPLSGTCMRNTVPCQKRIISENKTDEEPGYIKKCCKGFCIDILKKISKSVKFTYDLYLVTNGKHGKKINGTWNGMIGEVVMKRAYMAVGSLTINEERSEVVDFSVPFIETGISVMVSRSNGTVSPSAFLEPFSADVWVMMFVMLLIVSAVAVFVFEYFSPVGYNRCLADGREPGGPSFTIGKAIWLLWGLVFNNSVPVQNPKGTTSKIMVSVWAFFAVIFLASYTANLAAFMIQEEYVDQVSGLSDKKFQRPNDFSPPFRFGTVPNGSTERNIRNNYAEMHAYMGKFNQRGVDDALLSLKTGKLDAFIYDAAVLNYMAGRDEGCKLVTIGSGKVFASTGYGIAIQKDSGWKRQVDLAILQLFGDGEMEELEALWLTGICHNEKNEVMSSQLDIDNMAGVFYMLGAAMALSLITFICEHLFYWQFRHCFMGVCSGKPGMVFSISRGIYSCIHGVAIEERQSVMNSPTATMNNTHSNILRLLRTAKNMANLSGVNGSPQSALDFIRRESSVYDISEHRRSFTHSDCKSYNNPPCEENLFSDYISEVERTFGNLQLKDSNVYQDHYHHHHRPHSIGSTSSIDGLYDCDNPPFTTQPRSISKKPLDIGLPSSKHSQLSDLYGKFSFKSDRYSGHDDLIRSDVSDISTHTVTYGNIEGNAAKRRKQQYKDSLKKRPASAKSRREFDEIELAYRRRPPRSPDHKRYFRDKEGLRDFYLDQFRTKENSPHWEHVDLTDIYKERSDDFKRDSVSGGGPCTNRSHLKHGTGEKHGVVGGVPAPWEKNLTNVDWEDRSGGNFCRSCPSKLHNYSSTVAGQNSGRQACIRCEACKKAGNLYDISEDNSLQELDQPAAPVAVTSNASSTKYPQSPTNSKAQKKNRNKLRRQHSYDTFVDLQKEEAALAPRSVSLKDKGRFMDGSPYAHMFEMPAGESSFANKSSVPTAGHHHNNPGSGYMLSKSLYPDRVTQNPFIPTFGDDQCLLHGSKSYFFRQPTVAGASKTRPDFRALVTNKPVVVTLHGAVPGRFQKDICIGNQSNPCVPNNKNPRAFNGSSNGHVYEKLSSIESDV
Sequence of GluN1/GluN2D (Rattus norvegicus, UniProt Q62645) (Q62645 28-1323, other chains not shown): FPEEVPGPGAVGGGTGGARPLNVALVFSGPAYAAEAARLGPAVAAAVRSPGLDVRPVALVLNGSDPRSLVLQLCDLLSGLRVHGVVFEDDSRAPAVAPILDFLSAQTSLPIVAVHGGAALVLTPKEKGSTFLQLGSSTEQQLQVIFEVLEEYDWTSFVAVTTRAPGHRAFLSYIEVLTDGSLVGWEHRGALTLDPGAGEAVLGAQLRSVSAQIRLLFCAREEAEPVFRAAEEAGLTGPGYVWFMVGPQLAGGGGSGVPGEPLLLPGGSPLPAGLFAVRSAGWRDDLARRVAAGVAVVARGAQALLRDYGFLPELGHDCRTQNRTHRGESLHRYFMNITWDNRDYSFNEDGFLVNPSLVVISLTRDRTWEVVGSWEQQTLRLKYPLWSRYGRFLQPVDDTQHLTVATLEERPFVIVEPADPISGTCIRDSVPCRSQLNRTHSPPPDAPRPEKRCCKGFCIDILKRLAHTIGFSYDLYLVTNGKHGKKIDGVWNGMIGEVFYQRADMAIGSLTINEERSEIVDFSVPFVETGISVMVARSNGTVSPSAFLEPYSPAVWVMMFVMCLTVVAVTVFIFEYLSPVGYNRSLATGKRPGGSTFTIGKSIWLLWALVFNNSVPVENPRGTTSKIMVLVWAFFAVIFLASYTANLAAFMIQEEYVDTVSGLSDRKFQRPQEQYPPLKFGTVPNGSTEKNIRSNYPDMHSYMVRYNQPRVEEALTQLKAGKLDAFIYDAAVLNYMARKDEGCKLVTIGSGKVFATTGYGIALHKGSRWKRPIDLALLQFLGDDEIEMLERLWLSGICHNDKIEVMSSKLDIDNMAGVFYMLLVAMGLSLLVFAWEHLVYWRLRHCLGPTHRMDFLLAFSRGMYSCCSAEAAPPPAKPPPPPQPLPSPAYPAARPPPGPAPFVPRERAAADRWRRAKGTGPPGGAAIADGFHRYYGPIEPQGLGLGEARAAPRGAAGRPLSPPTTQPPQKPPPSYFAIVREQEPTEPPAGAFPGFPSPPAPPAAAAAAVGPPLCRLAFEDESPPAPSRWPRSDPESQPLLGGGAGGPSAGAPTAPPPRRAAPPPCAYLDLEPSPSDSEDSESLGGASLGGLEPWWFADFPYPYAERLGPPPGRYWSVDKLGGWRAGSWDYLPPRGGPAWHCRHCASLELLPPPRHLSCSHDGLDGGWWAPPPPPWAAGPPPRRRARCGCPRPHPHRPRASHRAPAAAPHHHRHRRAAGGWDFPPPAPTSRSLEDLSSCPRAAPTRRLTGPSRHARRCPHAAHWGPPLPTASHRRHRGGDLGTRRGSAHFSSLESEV
Sequence of GluN1/GluN2D (Rattus norvegicus, UniProt P35439+Q62645) (Q62645 28-1323, other chains not shown): as above

`N#CCCC(=O)N1N=C(c2c(-c3ccc(Cl)cc3)c3ccccc3[nH]c2=O)CC1c1ccc(Cl)cc1` (stereo not shown) [2e] showed a remaining activity at 30 µM [1] of 82 ± 2.4%, a remaining activity at 30 µM [2] of 94 ± 1.4% and a remaining activity at 30 µM [3] of 67 ± 2.6%. It also gave an IC50 [3] of 99 µM, a remaining activity at 30 µM [4] of 46 ± 5% and an IC50 [4] of 28 µM.

Work on `O=C(O)CCCC(=O)N1N=C(c2c(-c3ccc(Cl)cc3)c3ccccc3[nH]c2=O)CC1c1ccc(Cl)cc1` (stereo not shown) [2b] yielded a remaining activity at 30 µM [1] of 57 ± 2.6%, an IC50 [1] of 37 µM and an IC50 [2] of 25 µM. For the same compound, the “I / I control GluN2C” value ([5]; tested at 10 μM (footnote b)) was 13 ± 1.3 ^b (1,8) %, the IC50 [3] was 0.9 µM and the IC50 [4] was 0.64 µM. The “Selectivity 2A IC50 / 2D IC50” value [6] was 39 fold, the “Selectivity 2B IC50 / 2D IC50” value [6] was 58 fold and the “I / I control GluN2D” value ([6]; tested at 10 μM (footnote b), 100 μM glutamate, 30 μM glycine, mean ± SEM) was 5.9 ± 1.6 ^b (1,8) %.

`N[C@@H](CCC(=O)N1N=C(c2c(-c3ccc(Cl)cc3)c3ccccc3[nH]c2=O)CC1c1ccc(Cl)cc1)C(=O)O` (stereo partly shown) [2d] gave a remaining activity at 30 µM [1] of 48 ± 4%, an IC50 [1] of 21 µM and a remaining activity at 30 µM [2] of 36 ± 5.2%. The IC50 [2] was 15 µM, the remaining activity at 30 µM [3] was 16 ± 5% and the IC50 [3] was 2.1 µM. For the same compound, the remaining activity at 30 µM [4] was 3.1 ± 0.59%, the IC50 [4] was 1.1 µM and the “Selectivity 2A IC50 / 2D IC50” value [6] was 14 fold. For the same compound, the “Selectivity 2B IC50 / 2D IC50” value [6] was 19 fold.

`NC(=O)N1c2ccccc2C=Cc2ccccc21` [Carbamazepine, reference compound] showed a fraction unbound at 4 h, 5 µM ([7]; C57BL/6, mouse, brain homogenate (4 times diluted), pH 7.4, mouse brain tissue binding (free fraction in brain), read-out: % Unbound) of 0.135, a fraction unbound at 4 h, 5 µM ([7]; C57BL/6, mouse, brain homogenate (4 times diluted), pH 7.4, mouse brain tissue binding, RED, 4 h, read-out: % Bound Mean ± SD (converted)) of 0.135 and a fraction unbound at 4 h, 5 µM ([7]; C57BL/6, mouse, brain homogenate (4 times diluted), pH 7.4, mouse brain tissue binding, RED, 4 h, read-out: % Bound R1 (converted)) of 0.131. It also gave a fraction unbound at 4 h, 5 µM ([7]; C57BL/6, mouse, brain homogenate (4 times diluted), pH 7.4, mouse brain tissue binding, RED, 4 h, read-out: % Bound R2 (converted)) of 0.14, a fraction unbound at 4 h, 5 µM ([7]; C57BL/6, mouse, brain homogenate (4 times diluted), pH 7.4, mouse brain tissue binding, read-out: fu) of 0.135 and a remaining at 4 h, 5 µM ([7]; C57BL/6, mouse, brain homogenate (4 times diluted), pH 7.4, starting concentration 5 μM, 4 h) of 105%. For the same compound, the recovery at 4 h, 5 μM ([7]; C57BL/6, pH 7.4, mouse brain tissue binding, RED, 4 h) was 91%.

Work on `O=C(CCc1nnn[nH]1)N1N=C(c2c(-c3ccc(Cl)cc3)c3ccccc3[nH]c2=O)CC1c1ccc(Cl)cc1` (stereo not shown) [2h] yielded a remaining activity at 30 µM [1] of 48 ± 1.9%, an IC50 [1] of 29 µM and a remaining activity at 30 µM [2] of 29 ± 4.1%. For the same compound, the IC50 [2] was 22 µM, the remaining activity at 30 µM [3] was 2.3 ± 0.5% and the IC50 [3] was 0.57 µM. The remaining activity at 30 µM [4] was 2.4 ± 0.56%, the IC50 [4] was 0.52 µM and the “Selectivity 2A IC50 / 2D IC50” value [6] was 42 fold. The “Selectivity 2B IC50 / 2D IC50” value [6] was 56 fold.

With `O=C(O)CC(F)(F)C(=O)N1N=C(c2c(-c3ccc(Cl)cc3)c3ccccc3[nH]c2=O)C[C@@H]1c1ccc(Cl)cc1` [(R)-(+)-2i] the “I3 μM/Icontrol GluN2B” value [8] was 99 ± 2.4 (3, 12) %, the “I3 μM/Icontrol GluN2A” value [9] was 103 ± 2.5 (3, 16) % and the “I3 μM/Icontrol GluN2C” value ([5]; tested at 3 μM) was 52 ± 2.1 (2, 12) %. The IC50 [3] was 0.51 µM, the IC50 [4] was 0.31 µM and the “I3 μM/Icontrol GluN2D” value ([6]; tested at 3 μM, 100 μM glutamate, 30 μM glycine, mean ± SEM) was 42 ± 3.5 (2, 13) %.

With `O=C(N1N=C(c2c(-c3ccc(Cl)cc3)c3ccccc3[nH]c2=O)CC1c1ccc(Cl)cc1)C(F)(F)F` (stereo not shown) [2j] the remaining activity at 30 µM [1] was 86 ± 2.3%, the remaining activity at 30 µM [2] was 96 ± 2.1% and the remaining activity at 30 µM [3] was 100 ± 2.2%. It also gave a remaining activity at 30 µM [4] of 86 ± 2.8%.
